From patent US7329520B2, “Fructosyl peptide oxidase and utilization thereof” (Daiichi Pure Chemicals Co., Ltd., priority 2002, dated 2008)
No end group written: not given here.

Key:
[1] = tested on: Zingiber officinale-originating enzyme; assay: Hydrogen peroxide production, DA-64 color development; assay type: biochemical; conditions: lmM substrate, enzyme 0.3 u/mL, 30 minutes at 50° C., pH 8.0, DA-64/POD
Experimental: To a 50 mM phosphate buffer (pH 8.0) containing 0.5 mM DA-64 (product of Wako Pure Chemical Industries, Ltd.), 200-u/mL POD, 0.1% sodium azide, and lmM fructosyl valine or fructosyl peptide (SEQ ID NOs: 1 to 5) (all being final concentrations), a Zingiber officinale-originating enzyme solution was added in an amount of 0.3 u/mL (final concentration), and the mixture was treated for 30 minutes at 50° C. Absorbance at 700 nm was measured by employment of purified water as a control. Color development of DA-64 was observed (Table 1). Thus, hydrogen peroxide was confirmed to be produced.

[2] = tested on: enzyme originating from Zingiber officinale; assay: Measurement of fructosyl peptide through glucosone, absorbance at 550 nm; assay type: biochemical; conditions: 0 to 40 μM substrate, enzyme 1.6 u/mL (30 μL), 16 hours at 37° C.
Experimental: 200 mM Phosphate buffer (pH 8.0) (150 μL), purified water (360 μL), and each of aqueous fructosyl valyl histidine solutions (60 μL) having different concentrations were mixed together so that the final fructosyl valyl histidine concentrations after reaction fell between 0 and 40 μM. The reaction was mixed with a solution of the enzyme originating from Zingiber officinale (1.6 u/mL) (30 μL), and the resultant mixture was allowed to react for 16 hours at 37° C. Subsequently, a mixture which had been prepared in advance by mixing 200 mM acetate buffer (pH 6.0) (750 μL), 4000-u/mL glucose oxidase (Toyobo Co., Ltd.) (450 μL), 0.15% 4-aminoantipyrine (300 μL), 0.3% TOOS (Dojindo Laboratories) (300 μL), 500-u/mL peroxidase (Toyobo Co., Ltd.: Type III) (300 μL), and 1% sodium azide (300 μL) was added to the reaction mixture, and the resultant mixture was treated for 10 minutes at 37° C., followed by measuring absorbance at 550 nm (FIG. 7).

[3] = tested on: enzyme originating from a plant belonging to the family Zingiberaceae; assay: Enzyme activity on substrates by glucosone production (substrate specificity, Km); assay type: biochemical, Zingiber officinale; conditions: Lineweaver-Burk's plots; glucosone production at 37° C., pH 8.0
Experimental: The method for determining activity of the enzyme of the present invention is exemplified by a method in which the enzyme is reacted with a substrate fructosyl peptide, to thereby produce non-fructosyl peptide, glucosone, and hydrogen peroxide, and the amount of any one of these compounds produced through the enzyme reaction is measured. Next will be described an example method of measuring the amount of glucosone produced. Hereinafter, unless otherwise specified, the substrate employed for determining activity of the enzyme of the present invention is fructosyl valyl histidine. One unit (U) of the titer of the enzyme is defined as the amount of enzyme which produces 1 μmol glucosone in one minute as measured when the substrate is fructosyl valyl histidine. […]
To the above reaction mixture, a mixture which has been prepared in advance by mixing 200 mM acetate buffer (pH 6.0) (750 μL), 4000-u/mL glucose oxidase (Toyobo Co., Ltd.) (450 μL), 0.15% 4-aminoantipyrine (300 μL), 0.3% TOOS (Dojindo Laboratories) (300 μL), 500-u/mL peroxidase (Toyobo Co., Ltd.: Type III) (300 μL), and 1% sodium azide (300 μL) is added, followed by heating for 10 minutes at 37° C. Thereafter, absorbance is measured at 550 nm. […] Thus, the amount (in micromoles) of glucosone produced in one minute is calculated, and the obtained value is used as the activity unit of the enzyme solution. […]

[4] = tested on: Zingiberaceae-plant-origin crude enzyme solution; assay: Defructosylation of fructosyl peptide, analysed by capillary electrophoresis; assay type: biochemical, Zingiber officinale; conditions: reaction mixture 1, 16 hours at 37° C., pH 8.0, control peak area 32 mABU×sec
Experimental: (i) A 100 mM phosphate buffer (pH 8.0) (100 μL), a 500 μM aqueous solution (40 μL) of the N-terminal-valine fructosylated peptide having an amino acid sequence represented by SEQ ID NO: 2 (f-VHL: products of Bioquest), purified water (20 μL), and the Zingiberaceae-plant-origin crude enzyme solution (40 μL) prepared in Example 1 were mixed together, and the mixture was caused to react for 16 hours at 37° C. The reaction mixture was subjected to ultrafiltration (molecular weight: 10,000), and the filtrate was collected (reaction mixture 1). The reaction mixture 1 was analyzed through use of a capillary electrophoresis apparatus CAPI-3200 (product of Otsuka Electronics Co., Ltd) (electrophoresis buffer: 150 mM phosphate buffer (pH 2.0), voltage: 15 kV, detection wavelength: 210 nm) in terms of peak position and peak area.
As a control, purified water was added instead of the crude enzyme solution, and the resultant mixture was allowed to react under similar conditions, to thereby prepare a filtrate (control solution 1). The analysis results obtained from the control solution 1 were compared with those of the reaction mixture 1.
The fructosyl peptide employed in the enzyme reaction or control test had been mixed with corresponding non-fructosylated peptide. The presence or absence of the enzyme activity was determined through comparison of the two peaks.

f-VHLT: N-terminal-valine fructosylated tetrapeptide substrate (SEQ ID NO: 3) (fructosyl-VHLT)
Absorbance at 700 nm [1]: 558 mAbs

f-VHLTPE: N-terminal-valine fructosylated hexapeptide substrate (SEQ ID NO: 5) (fructosyl-VHLTPE)
Absorbance at 700 nm [1]: 223 mAbs

CC(C)[C@H](NC1(CO)O[C@H](CO)[C@@H](O)[C@@H]1O)C(=O)N[C@@H](Cc1c[nH]cn1)C(=O)O (some centres unmarked) [f-VH, fructosyl valyl histidine]
absorbance at 550 nm against substrate concentration [2]: increase in accordance with the increase in concentration
Absorbance at 700 nm [1]: 735 mAbs
Km [3]: 1200 µM

f-VHL: N-terminal-valine fructosylated peptide having an amino acid sequence represented by SEQ ID NO: 2; fructosyl tripeptide (fructosyl-Val-His-Leu)
Absorbance at 700 nm [1]: 570 mAbs
peak attributed to f-VHL (capillary electrophoresis) [4]: does not exist

f-VHLTP: N-terminal-valine fructosylated pentapeptide substrate (SEQ ID NO: 4) (fructosyl-VHLTP)
Absorbance at 700 nm [1]: 198 mAbs
